Results taken from US20050215548A1 (Cyclacel Limited, priority 2002, published 2005).
Like-named read-outs stand apart in the source and are kept apart here.

Tests used:
AGS [1] = assay: Combination treatment with cisplatin or etoposide, MTT, AGS; type: cell-based, human; settings: MTT, 72 hours
From the text: (§1) It is well established that radiotherapy and most current forms of chemotherapy cause extensive genetic damage and induction of the p53-dependent apoptotic pathway, which determines the important role of this tumor suppressor protein in cancer therapy. HDM2, on the other hand, as a transcriptional product and negative regulator pf p53, would destabilise p53 and diminish its pro-apoptotic function. Inhibitors of the p53-HDM2 negative feedback loop (e.g. compounds disrupting the p53-HDM2 complex) are expected to synergise with cytotoxic agents for induction of p53 and subsequent apoptosis. […] Both chemotherapeutic agents were used in the concentration range of 100-0.19 μM.

H1299 [2] = assay: Combination treatment with cisplatin or etoposide, MTT, H1299; type: cell-based, human; settings: 72 hours
From the text: as §1

[3] = tested on: key proteins in the HDM2 pathway; assay: SDS-PAGE and immunoblotting of key proteins in the HDM2 pathway; type: cell-based, human; settings: for changes in protein levels and cell morphology: negative control: MCF7, 13.5 μM, 68/69: MCF7 and H1299 at five times IC50 of 69, 49: AGS, SJSA1, H1299
From the text: Equal amounts of cell lysate were separated by SDS-PAGE and analysed by immunoblotting using the indicated antibodies. An estimation of the extent of cell rounding is indicated above each lane. […] (B) The effect of compound 2 on the levels of the cell cycle proteins in AGS cells (wild-type 53). […] Equal amounts of cell lysate were separated by SDS-PAGE and analysed by immunoblotting using the indicated antibodies. An estimation of the extent of cell rounding is indicated above each lane. (C) The effect of negative control compound (refer Example 10), compound 2, cisplatin, and anisomycin on the levels of key proteins in MCF7 cells. […] Cisplatinum and anisomycin (a transcription inhibitor) treatments were with 50 μM or 37 μM, respectively. Cells were harvested at various time points; afterwards lysates were prepared and separated by SDS-PAGE and analysed by immunoblotting. The proteins detected are indicated. The extent of rounded or floating cells and the percentage viable cells were assessed. […] Equal amounts of cell lysate were separated by SDS-PAGE and analysed by immunoblotting using a range of antibodies. An estimation of the extent of cell rounding is indicated above each lane. […] SJSA1 cells were treated with 5 times [IC50] of compound 2 and collected at the indicated time points. Equal amounts of cell lysate were separated by SDS-PAGE and analysed by immunoblotting using a range of antibodies. An estimation of the extent of cell rounding is indicated above each lane.
Many types of cellular stress converge on the p53 pathway and induce its activity. […] The biological effect of bisarylsufonamides on cellular level was studies using representative compounds (mainly compound 2) and number of cell lines with different HDM2 and p53 status. These were overexpressing Hdm2 (SJSA1—osteosarcoma), wild type p53 and normal levels of HDM2 (AGS—gastric adenocarcinoma, MCF7—breast adenocarcinoma), or p53 null, low levels of HDM2 (H1299—large cell lung carcinoma).
Cells were lysed and equal amounts were analysed by SDS-polyacrylamide gel electrophoresis (SDS-PAGE) and immunoblotting.

SJSA-1 [4] = assay: Combination treatment with cisplatin or etoposide, MTT, SJSA-1; type: cell-based, human; settings: MTT, 72 hours
From the text: as §1

MCF7 or H1299 cells = assay: Cell cycle distribution, propidium iodide flow cytometry; type: cell-based, human; settings: 5 times IC50
Protocol: Cells were stained with propidium iodide and the cell cycle position was determined using a flow cytometer.

AGS [5] = assay: 72-h MTT cytotoxicity assay, AGS; type: cell-based; settings: Homo sapiens, 72-h MTT, Table 1, read-out: IC50 Anti-proliferative effect on cell line AGS
Protocol: (§2) The fluorescence polarisation competitive HDM2 binding assay described in Example 3 was used. Furthermore, the anti-proliferative potency of the compounds against three human tumour cell lines with different genetic make-up was also determined. […] The cell lines used were as follows: AGS, gastric adenocarcinoma, wild-type p53; H1299, large cell lung carcinoma, p53 null, low HDM2; SJSA-1, primitive multipotential bone sarcoma, wild-type p53, overexpressed HDM2.
(§3) Representative bisarylsulfonamide compounds were tested on a panel of transformed and non-transformed human cell lines, using a standard 72-h MTT cytotoxicity assay [Haselsberger K et al, ibid].

HDM2 [6] = molecular target: T1, HDM2 (Homo sapiens, UniProt Q00987); assay: Fluorescence polarisation competitive HDM2 binding assay
T1 construct: Recombinant HDM2 (1.5 μg per well) in TBS-BSA buffer
T1 sequence (Q00987 whole entry): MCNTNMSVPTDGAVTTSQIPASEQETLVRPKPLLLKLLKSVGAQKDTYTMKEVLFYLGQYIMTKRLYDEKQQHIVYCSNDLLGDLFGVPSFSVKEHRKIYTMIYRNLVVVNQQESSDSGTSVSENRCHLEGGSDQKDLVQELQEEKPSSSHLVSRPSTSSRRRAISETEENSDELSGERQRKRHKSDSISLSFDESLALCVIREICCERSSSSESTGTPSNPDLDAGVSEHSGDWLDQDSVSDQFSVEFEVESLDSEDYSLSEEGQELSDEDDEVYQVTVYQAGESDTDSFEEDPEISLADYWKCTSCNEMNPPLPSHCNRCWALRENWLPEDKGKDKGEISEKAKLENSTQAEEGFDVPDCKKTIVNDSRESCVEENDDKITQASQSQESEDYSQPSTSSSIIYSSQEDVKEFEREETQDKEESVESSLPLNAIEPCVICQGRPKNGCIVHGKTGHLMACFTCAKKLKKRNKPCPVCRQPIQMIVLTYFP
How it was run: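 Recombinant HDM2 (1.5 μg/well) was preincubated 5 min at room temperature with serially diluted compound in 50 mM Tris pH 7.4, 150 mM NaCl, 0.1% BSA, 5% DMSO final. Fluorescein-labelled p53 peptide (0.2 μM) was then added for 45 min. Polarisation was read at 485/520 nm and IC50 derived from dose-response curves.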

p53 = p53 reporter gene assay (U2OS-derived luciferase reporter cell line)
Protocol: A dual assay assessing both cell viability and p53 response was employed. A U2OS-derived cell line stably transfected with a p53 response element and a luciferase reporter gene was created. […] After seeding of cells into 96-well tissue culture plates, treatment with test compounds, and incubation for the desired duration, the cell proliferation reagent WST-1 (Roche Molecular Biochemicals) was used to determine cell viability. The Bright-Glo™ Luciferase Assay System (Promega) was used to measure luciferase activity. The data from the cell viability assay was used to normalise data from the luciferase assay.

H1299 [7] = assay: 72-h MTT cytotoxicity assay, H1299; type: cell-based; settings: Homo sapiens, NCI-H1299; 72-h MTT; Table 1; read-out: IC50 Anti-proliferative effect on cell line H 1299
Protocol: as §2, §3

[8] = tested on: E2F transcription factors; assay: E2F reporter gene assay (A549-derived luciferase reporter cell line); type: cell-based; settings: Homo sapiens; after 3-h treatment with test compounds; read-out: IC50 E2F reporter, Non-synchronised cells
Protocol: A similar system to the p53 reporter assay described above was used, with the exception that it was designed to be responsive to E2F transcription factors rather than p53. An A549-derived cell line stably transfected with an E2F response element and a luciferase reporter gene was created. The genetic expression cassette construct used was from Clontech (Mercury™ Cell Cycle Profiling System). Assays were carried out as described above.
Representative bisarylsulfonamides were tested in the E2F gene reporter assay described in Example 6.

SJSA-1 [9] = assay: 72-h MTT cytotoxicity assay, SJSA-1; type: cell-based; settings: Homo sapiens, SJSA-1; 72-h MTT; Table 1; read-out: IC50 Anti-proliferative effect on cell line SJSA-1
Protocol: as §2, §3

HDM2 [10] = molecular target: T1, HDM2; settings: literature, cited from earlier work; for affinity for HDM2 / inhibition of the p53/HDM2 complex: background
carcinoma cell lines = assay: 72-h MTT panel, average carcinomas; type: cell-based; settings: Homo sapiens, read-out: Anti-proliferative activity, 72-h MTT IC50, Average carcinomas
Protocol: as §3
This differential selectivity further supports the notion that the bisarylsulfonamides modulate cellular HDM2 function. It is known that HDM2 amplification is particularly common in soft tissue sarcomas and osteosarcomas [Momand J et al, ibid; Bartel F, Meye A, Wurl P, Kappler M, Bache M, Lautenschlager C, Grunbaum U, Schmidt H, Taubert H; Int. J. Cancer 2001; 95: 168-175].

[11] = Table 5, read-out: IC50, agent alone
[12] = Homo sapiens, Table 6, read-out: IC50, agent alone

N.N.[Cl][Pt][Cl] [Cisplatin, reference compound]
IC50 (AGS [1]; [11]): 3.8 µM | IC50 (H1299 [2]; MTT, Table 5, read-out: IC50, agent alone): 2.9 µM | p53 level and p53 phosphorylation at serine 15 ([3]; compound 2: AGS, H1299, MCF7 or SJSA1 cells, etoposide or cisplatinum: AGS or MCF7 cells): inducing p53 phosphorylation of serine 15, as well as increasing the p53 and E2F-1 protein levels | IC50 (SJSA-1 [4]; [11]): 6.1 µM | cell cycle arrest (MCF7 or H1299 cells): no detectable arrest at any phase of the cell cycle | sub-G1 cells, indicative of apoptosis (MCF7 or H1299 cells): induced sub-G1 cells

O=[N+]([O-])c1ccc(S(=O)(=O)Nc2ccc(Cl)cc2)s1 [Compound 68, 5-Nitro-thiophene-2-sulfonic acid (4-chloro-phenyl)-amide]
IC50 (AGS [5]): 76 µM | changes in protein levels and cell morphology [3]: Little change in protein levels | IC50 (HDM2 [6]; text of Example 10, refer Table 1, read-out: competitive inhibition IC50): 431 µM

O=[N+]([O-])c1cc(S(=O)(=O)Nc2nc3ccccc3[nH]2)ccc1Cl [Compound 83, N-(1H-Benzoimidazol-2-yl)-4-chloro-3-nitro-benzenesulfonamide]
Fold induction of luciferase activity (p53; compared to basal luciferase activity, 16-h time point, at concentration of maximal induction): 10 fold | Concentration (test compound concentration at which the p53 induction was maximal) (p53; p53 reporter, U2OS-derived cell line): 5 µM | IC50 (H1299 [7]): 1.4 ± 0.2 µM | IC50 [8]: 29.4 ± 6 µM | IC50 (SJSA-1 [9]): 2.3 ± 0.9 µM | IC50 (AGS [5]): 0.9 ± 0.1 µM | IC50 (HDM2 [6]; fluorescence polarisation assay, Table 3, read-out: In vitro competitive HDM2 binding assay IC50): 119 ± 42.5 µM | IC50 (HDM2 [6]; fluorescence polarisation format, Table 1, read-out: IC50 In vitro competitive HDM2 binding assay): 119 ± 43 µM

O=C(O)COc1ccc(C(=O)C=Cc2ccc(Cl)c(Cl)c2)cc1 [Compound B-1, {4-[3-(3,4-dichloro-phenyl)-acryloyl]-phenoxy}-acetic acid]
affinity for HDM2 / inhibition of the p53/HDM2 complex (HDM2 [10]): high micromolar affinity

COc1cc([C@@H]2c3cc4c(cc3[C@@H](O[C@@H]3O[C@@H]5CO[C@@H](C)O[C@H]5[C@H](O)[C@H]3O)[C@H]3COC(=O)[C@H]23)OCO4)cc(OC)c1O [Etoposide, reference compound]
IC50 (AGS [1]; [12]): 0.28 µM | IC50 (H1299 [2]; Homo sapiens, NCI-H1299, MTT, Table 6, read-out: IC50, agent alone): 1.3 µM | IC50 (SJSA-1 [4]; [12]): 16 µM

CC[C@H](CO)Nc1nc(NCc2ccccc2)c2ncn(C(C)C)c2n1 [Roscovitine, reference compound]
IC50 (carcinoma cell lines): 11.2 ± 3 µM

O=S(=O)(NCc1ccc(C(F)(F)F)cc1)c1cc(Br)c(Cl)s1 [negative control compound, 4-bromo-5-chloro-thiophene-2-sulfonic acid 4-trifluoromethyl-benzylamide, reference compound]
changes in protein levels and cell morphology [3]: did not induce any notable changes in the protein levels tested or cell morphology | inhibition of the HDM2-p53 interaction in vitro (HDM2 [6]): does not inhibit

FMDYWEGL
affinity for HDM2 / inhibition of the p53/HDM2 complex (HDM2 [10]): micromolar affinity

MPRFMDYWEGLN
affinity for HDM2 / inhibition of the p53/HDM2 complex (HDM2 [10]): sub-micromolar affinity | fold more potent than the corresponding wild-type p53-derived peptide (HDM2 [10]; versus 16QETFSDLWKLLF27): 28 fold

TFSDLW (UniProt P04637 18-23, looked up, fragment) [p53(18-23)]
affinity for HDM2 / inhibition of the p53/HDM2 complex (HDM2 [10]): little affinity

chlorofusin
affinity for HDM2 / inhibition of the p53/HDM2 complex (HDM2 [10]): micromolar inhibitor
